This data set is described as follows: Xylitol intervention study: postprandial plasma xylitol levels and elimination. Format: in vivo. On the procedure: A third xylitol intervention study (clinicaltrials.gov number: NCT04731363) included 10 prospectively recruited healthy volunteers (35±11 years of age, 50% male, nonsmokers without CVD, hypertension, or diabetes). Fasting (overnight) subjects were provided a standardized artificially sweetened beverage (300 mL) containing 30 g of xylitol dissolved in water with instructions to rapidly consume the drink (within 2 minutes). In the first part of xylitol ingestion studies, pharmacokinetics studies focused on post-prandial plasma levels and time course of elimination of xylitol. For LC-MS/MS analysis of xylitol, serial venous blood and urine sampling was performed at baseline, 30 min, 1 h, 4 h, 6 h and 24 h to establish postprandial peak levels and the time course of xylitol elimination in the first 4 subjects. After we noticed that xylitol levels were rapidly cleared with postprandial xylitol peak levels at 30 min after ingestion in all 4 subjects, we streamlined our protocol in the interest of being both practical and less demanding on subjects, and sampled blood and urine at baseline and after 30 min for the remainder of subjects.
Stable-isotope-dilution LC-MS/MS was developed to specifically quantify xylitol in human and mouse plasma, urine and feces (fecal pellets were dissolved in water and supernatant subjected to LC-MS/MS). Ice cold methanol (800 μL) and internal standard (^13C2-arabitol) were added to the plasma samples (20 μL) or urine (20 μL) previously diluted in MQ water, followed by vortexing and centrifuging (21,000×g; 4° C. for 15 min). The clear supernatant (800 μL) was transferred into a clean, labeled glass tubes (Borosilicate glass 12×75 mm) and dried in a speed vacuum concentrator (Speed vac plus, SC210, Thermo Sevant). Acetylation was used since xylitol is poorly ionizable in order to achieve better retention on the reverse phase column and separation from other structural isomers as well as better ionization to achieve better sensitivity. The dry residue was reconstituted in acetic anhydride (100 μL) and 4-Dimethylaminopyridine (DMAP) in pyridine (100 μl; 1 mg/mL), sealed with safety caps, vortexed and heated (45 min at 80° C.) followed with drying under nitrogen. Dried residues were dissolved in HCl in water (0.1 M; 0.5 mL) and extracted with ethylacetate (2.0 mL). Ethylacetate layer was transferred into a clean glass tube (Borosilicate glass 12×75 mm) and dried under nitrogen. The dry residue was reconstituted in ammonium formate in a mixture of methanol:water (100 μL; 50:50 v/v with 10 mM ammonium formate), tubes were vortexed and liquid was transferred to glass vials with micro-insets and caped. LC-MS/MS analysis was performed on a chromatographic system consisting of two Shimadzu LC-30 AD pumps (Nexcra X2), a CTO 20AC oven operating at 30° C., and a SIL-30 AC-MP autosampler in tandem with a triple quadruple mass spectrometer (8050 series, Shimadzu Scientific Instruments, Inc., Columbia, MD, USA). For chromatographic separation, a Kinetex C18 column (50 mm×2.1 mm; 2.6 μm) (Cat #00B-4462-AN, Phenomenex, Torrance, CA) was used. […] Electrospray ionization in the positive mode was used with multiple reaction monitoring (MRM) for detection of endogenous and stable isotope labeled internal standards. The following transitions were used: m/z 380 [M^+NH4]^+ […] for xylitol, arabitol and ribitol and m/z 382 [M+NH4]^+→305 for [^13C2]-arabitol. The following ion source parameters were applied: nebulizing gas flow, 3 L/min; heating gas flow, 10 L/min; interface temperature, 300° C.; desolvation line temperature, 250° C.; heat block temperature, 400° C.; and drying gas flow, 10 L/min. Accuracy and precision of the method to quantify xylitol (separated from its structural isomers arabitol and ribitol) were assessed by a standard addition method of pure synthetic standard into different plasma pools. […]

The structures appear in SMILES notation.

In the case of `OC[C@@H](O)[C@H](O)[C@@H](O)CO` [xylitol], the concentration at 30 min (both sexes, human, plasma, oral, 30 min following ingestion of 30 g xylitol, read-out: plasma levels of xylitol, median [IQR]) turned out to be 312000 nM. Further, where the note is “both sexes, human, plasma, oral, 4 h after 30 g xylitol, read-out: plasma xylitol levels, median [IQR]”, the concentration at 4 h amounted to 1870 nM. The concentration at 6 h (both sexes, human, plasma, oral, 6 h after 30 g xylitol, read-out: plasma xylitol levels, median [IQR]) came to 670 nM. This molecule displayed a half-life (both sexes, human, plasma, 30 g xylitol oral) of 12.6 min. The “time of postprandial xylitol peak levels” value (first 4 subjects) amounted to 30 min. Besides, the “time to return of postprandial plasma levels to near baseline” value (healthy volunteers) is at most 6 h. In addition, under “oral ingestion”, the “oral absorption in humans” value is recorded as “readily absorbed”.

A word on the half-life: it is the time in which the quantity being followed falls by half.

(Values after US20260219274A1, “POLYOL SWEETNERS AND CARDIOVASCULAR AND THROMBOTIC EVENT RISK” (THE CLEVELAND CLINIC FOUNDATION, priority 2023, published 2026).)
